Measurements from ChEMBL document CHEMBL5260814, “Design strategies in the prodrugs of HIV-1 protease inhibitors to improve the pharmaceutical properties” (Eur J Med Chem, 2017).
Converted amounts (≈) assume the structure as drawn. One block for each molecule: values may come before it.

Columns and labels:
[1] = Solubility of compound; format: physicochemical
[2] = Cmax in rat in presence of Ritonavir; format: ADME; settings: in vivo
[3] = AUC in rat in presence of Ritonavir; format: ADME; design: concentration or dose not given beside the values; settings: in vivo
P-glycoprotein = experiment: Efflux ratio of apparent permeability across basal to apical membrane over apical to basal membrane in human Caco-2 cells in absence of P-glycoprotein; format: ADME, cell-based
[4] = Metabolic stability in rat liver microsome assessed as half life […]; format: ADME; settings: liver microsomes
[5] = Stability of compound in PBS at pH 7.4 assessed as half life; format: physicochemical
[6] = Stability of compound in PBS at pH 5.5 assessed as half life; format: physicochemical
[7] = Stability of compound in PBS at pH 4.9 assessed as half life; format: physicochemical
[8] = Water solubility of compound; format: physicochemical
[9] = Stability of compound in PBS buffer at pH 7.3 assessed as half life; format: physicochemical

solubility [1]: 47.8 mg/mL (≈ 62.4 mM)
Compound: Cc1cccc(C)c1OCC(=O)N[C@@H](Cc1ccccc1)[C@H](OC(=O)CCC(=O)NCCN1CCCCC1)C(=O)N1CSC(C)(C)[C@H]1C(=O)NC(C)(C)C

solubility [1]: 73.6 mg/mL (≈ 94.1 mM)
Compound: Cc1cccc(C)c1OCC(=O)N[C@@H](Cc1ccccc1)[C@H](OC(=O)CCC(=O)NCCCN1CCOCC1)C(=O)N1CSC(C)(C)[C@H]1C(=O)NC(C)(C)C

half-life [5]: < 1 min
half-life [6]: 4.5 min
half-life [7]: 24.8 min
Compound: Cc1cccc(C)c1OCC(=O)O[C@H](C(=O)N1CSC(C)(C)[C@H]1C(=O)NC(C)(C)C)[C@@H](N)Cc1ccccc1.Cl

solubility [8]: 15 mg/mL
half-life [5]: < 1 min
half-life [6]: 4.2 min
half-life [7]: 23.8 min
Compound: Cc1cccc(C)c1OCC(=O)O[C@H](C(=O)N1CSC[C@H]1C(=O)NC(C)(C)C)[C@@H](N)Cc1ccccc1.Cl

solubility [8]: 0.023 mg/mL (≈ 0.0436 mM)
Compound: Cc1cccc(C)c1OCC(=O)N[C@@H](Cc1ccccc1)[C@H](O)C(=O)N1CSC[C@H]1C(=O)NC(C)(C)C

solubility [1]: 30.3 mg/mL (≈ 40.6 mM)
Compound: Cc1cccc(C)c1OCC(=O)N[C@@H](Cc1ccccc1)[C@H](OC(=O)CCC(=O)NCc1cccnc1)C(=O)N1CSC(C)(C)[C@H]1C(=O)NC(C)(C)C

solubility [8]: 0.018 mg/mL (≈ 0.0332 mM)
Compound: Cc1ccccc1OCC(=O)N[C@@H](Cc1ccccc1)[C@H](O)C(=O)N1CSC(C)(C)[C@H]1C(=O)NC(C)(C)C

solubility [1]: 53.2 mg/mL (≈ 69.3 mM)
Compound: Cc1cccc(C)c1OCC(=O)N[C@@H](Cc1ccccc1)[C@H](OC(=O)CCC(=O)NCCN1CCOCC1)C(=O)N1CSC(C)(C)[C@H]1C(=O)NC(C)(C)C

Further lines, the molecule ahead of its results:

Compound: Cc1nc(COc2ccc(C[C@H](NC(=O)O[C@H]3CO[C@H]4OCC[C@H]43)[C@@H](CN(CC(C)C)S(=O)(=O)c3ccc4c(c3)OCO4)OC(=O)COCC(=O)NCc3ccccn3)cc2)cs1
Cmax ([2]; read-out: Cmax): 640 ng/mL
AUC ([3]; read-out: AUC): 6810 ng·h/mL

Compound: Cc1nc(COc2ccc(C[C@H](NC(=O)O[C@H]3CO[C@H]4OCC[C@H]43)[C@@H](CN(CC(C)C)S(=O)(=O)c3ccc4c(c3)OCO4)OC(=O)COC(=O)[C@@H](N)CC(C)C)cc2)cs1
Cmax ([2]; read-out: Cmax): 776 ng/mL
AUC ([3]; read-out: AUC): 3960 ng·h/mL

Compound: CC(C)[C@H](N)C(=O)O[C@H](CN1C[C@H]2CCCC[C@H]2C[C@H]1C(=O)NC(C)(C)C)[C@H](Cc1ccccc1)NC(=O)[C@H](CC(N)=O)NC(=O)c1ccc2ccccc2n1
efflux ratio (P-glycoprotein): 1.2
half-life [4]: 47 min

Compound: CC(C)(C)NC(=O)[C@@H]1CSCN1C(=O)[C@@H](OC(=O)COc1ccccc1)[C@@H](N)Cc1ccccc1.Cl
solubility [8]: 32 mg/mL
half-life [5]: < 1 min
half-life [6]: 2.9 min
half-life [7]: 21.2 min

Compound: CC(C)(C)NC(=O)[C@@H]1CN(Cc2cccnc2)CCN1C[C@H](C[C@@H](Cc1ccccc1)C(=O)N[C@H]1c2ccccc2C[C@H]1OC(=O)CCCCO[C@H]1O[C@H](CO)[C@@H](O)[C@H](O)[C@@H]1O)OC(=O)CCCCO[C@H]1O[C@H](CO)[C@@H](O)[C@H](O)[C@@H]1O
half-life [9]: 50 h

Compound: Cc1c(OC(=O)CCCCO[C@H]2O[C@H](CO)[C@@H](O)[C@H](O)[C@@H]2O)cccc1C(=O)N[C@@H](CSc1ccccc1)[C@H](O)CN1C[C@H]2CCCC[C@H]2C[C@H]1C(=O)NC(C)(C)C
half-life [9]: 50 h

Compound: Cc1nc(COc2ccc(C[C@H](NC(=O)O[C@H]3CO[C@H]4OCC[C@H]43)[C@@H](CN(CC(C)C)S(=O)(=O)c3ccc4c(c3)OCO4)OC(=O)COCCn3ccnc3)cc2)cs1
Cmax ([2]; read-out: Cmax): 322 ng/mL
AUC ([3]; read-out: AUC): > 5000 ng·h/mL

Compound: Cc1nc(COc2ccc(C[C@H](NC(=O)O[C@H]3CO[C@H]4OCC[C@H]43)[C@H](O)CN(CC(C)C)S(=O)(=O)c3ccc4c(c3)OCO4)cc2)cs1 [BRECANAVIR]
Cmax [2]: 696 ng/mL
AUC [3]: 1960 ng·h/mL

Compound: Cc1nc(COc2ccc(C[C@H](NC(=O)O[C@H]3CO[C@H]4OCC[C@H]43)[C@@H](CN(CC(C)C)S(=O)(=O)c3ccc4c(c3)OCO4)OC(=O)COCCOCC(=O)N(C)CCc3ccccn3)cc2)cs1
Cmax ([2]; read-out: Cmax): 513 ng/mL
AUC ([3]; read-out: AUC): 4220 ng·h/mL

Compound: CC(C)(C)NC(=O)[C@@H]1CN(Cc2cccnc2)CCN1C[C@@H](O)C[C@@H](Cc1ccccc1)C(=O)N[C@H]1c2ccccc2C[C@H]1OC(=O)CCCCO[C@H]1O[C@H](CO)[C@@H](O)[C@H](O)[C@@H]1O
half-life [9]: 50 h

Compound: CNCC(=O)OCC(=O)O[C@H](CN(CC(C)C)S(=O)(=O)c1ccc2c(c1)OCO2)[C@H](Cc1ccc(OCc2csc(C)n2)cc1)NC(=O)O[C@H]1CO[C@H]2OCC[C@H]21
Cmax ([2]; read-out: Cmax): 356 ng/mL
AUC ([3]; read-out: AUC): 5600 ng·h/mL

Compound: Cc1nc(COc2ccc(C[C@H](NC(=O)O[C@H]3CO[C@H]4OCC[C@H]43)[C@@H](CN(CC(C)C)S(=O)(=O)c3ccc4c(c3)OCO4)OC(=O)COC(=O)CN3CCOCC3)cc2)cs1
Cmax ([2]; read-out: Cmax): 1280 ng/mL
AUC ([3]; read-out: AUC): > 4000 ng·h/mL

Compound: Cc1nc(COc2ccc(C[C@H](NC(=O)O[C@H]3CO[C@H]4OCC[C@H]43)[C@@H](CN(CC(C)C)S(=O)(=O)c3ccc4c(c3)OCO4)OC(=O)CO[n+]3ccccc3)cc2)cs1
Cmax ([2]; read-out: Cmax): 272 ng/mL
AUC ([3]; read-out: AUC): > 7700 ng·h/mL

Compound: Cc1cccc(CN(C)CCOCC(=O)O[C@H](CN(CC(C)C)S(=O)(=O)c2ccc3c(c2)OCO3)[C@H](Cc2ccc(OCc3csc(C)n3)cc2)NC(=O)O[C@H]2CO[C@H]3OCC[C@H]32)n1
Cmax ([2]; read-out: Cmax): 401 ng/mL
AUC ([3]; read-out: AUC): 4020 ng·h/mL
